Source: patent US20230072421A1, “TARGETED RADIOPHARMACEUTICALS FOR THE DIAGNOSIS AND TREATMENT OF PROSTATE CANCER” (Bayer AS, priority 2019, published 2023)

Legend:
VCaP cells = test: Cell proliferation assay (CellTiter-Glo, 5-day exposure), VCaP; format: cell-based; settings: 4000 cells/well, Th-227 labelled at 375 kBq/nmol, mean of 1 to 6 experiments
Method in brief: (§1)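 Prostate cancer cells (VCaP 4000/well; 22Rv1, C4-2, LNCaP 1000/well), Th-227-labelled PSMA ligands, 5-day exposure; viability by CTG at start and end.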

C4-2 cells = test: Cell proliferation assay (CellTiter-Glo, 5-day exposure), C4-2; format: cell-based; settings: C4-2, 1000 cells/well, Th-227 labelled at 375 kBq/nmol, mean of 1 to 6 experiments
Method in brief: as §1

22Rv1 cells = test: Cell proliferation assay (CellTiter-Glo, 5-day exposure), 22Rv1; format: cell-based; settings: 22Rv1, 1000 cells/well, Th-227 labelled at 375 kBq/nmol, mean of 1 to 6 experiments
Method in brief: as §1

LNCaP cells = test: Cell proliferation assay (CellTiter-Glo, 5-day exposure), LNCaP; format: cell-based, human; settings: LNCaP, 1000 cells/well; Th-227 labelled at 375 kBq/nmol; 5-day exposure; mean of 1 to 6 experiments
Description: Inhibition of cell proliferation of Thorium-227 labeled PMSA SMOL ligands was tested different prostate cancer cell lines, namely 22Rv1, VCaP, C4-2 (all from ATCC, Manassas, Va., USA) and LNCaP (DMSZ, Braunschweig). Cells were seeded using the following conditions in 384 well plates (Corning) in 30 μl of growth media at 4000 cells/well for VCaP cells and 1000 cells/well for 22Rv1, C4-2 and LNCaP cells.
Cells were cultivated an incubator at 37° C. and 5% C02 over night. On the following days cells were treated in triplicates with serial dilutions of PSMA-SMOLs labeled with Th-227 at a specific activity of 375 kBq/nmol (RCP>70% as assessed by iTLC analysis; compounds where RCP was between 50-70% in individual experiments are marked with an * in the table) using a D300e Digital Dispenser (Tecan). In sister plates cell viability at treatment start (d=0) was determined using CellTiter-Glo® assay (CTG, Promega, Madison, Wis., USA), by adding 30 μl per well CTG solution, incubation for 10 min and reading of Luminescence in a PheraStarFSX instrument (BMG Labtech). After a 5-day exposure in the presenced of test compounds, cell viability of treated or untreated control cells was determined again using CellTiter-Glo® assay (Promega, Madison, Wis., USA). […] The DRC software is a Biobook Spreadsheet that was developed by Bayer AG and Bayer Business Services on the IDBS E-Workbook Suite platform (IDBS: ID Business Solutions Ltd., Guildford, UK).

[1] = molecular target: T1, PSMA-expressing LNCaP cells (Homo sapiens, UniProt Q04609); test: Internalization assay (membrane bound and internalized Th-227); format: cell-based; settings: 10 nM radiolabeled compound, Th-227 at 375 kBq/nmol, triplicates; for Internalized in LNCaP fmol/10^6 cells 30 min / Membrane bound in LNCaP fmol/10^6 cells 30 min: 30 min incubation; for Internalized in LNCaP fmol/10^6 cells 2 h / Membrane bound in LNCaP fmol/10^6 cells 2 h: 2 h incubation
T1 construct: PSMA-expressing LNCaP cells; endogenous in cells; host or cells: LNCaP
Description: For internalization assays 24 well plates (#3526, Corning) were coated with 200 μl Poly-L-Lysine (0.1 mg/ml, #3438-100-01, Fa. Cultrex) per well for 2 h at 37° C. […] Cells were incubated at 37° C. and 5% CO2 over night. On the following day 400 μl of the media were removed and a total of 200 μl growth medium added supplemented with PSMA-SMOLs labeled with Th-227 at 375 kBq/nmol in triplicates. Radiochemical purity of the labeling was analyzed by instant thin layer chromatography and found to be above 70% for all compounds used. The final concentration of radiolabeled SMOLs was in the test wells was 10 nM. Cells were incubated for 30 min or 2 h. After the incubation time supernatants were taken off and cells washed with PBS. Thereafter cells were washed twice with 0.2 ml 50 mM Glycine-HCl buffer (#55097, Sigma Aldrich) and once with PBS and the washing solutions combined in counting vials (#TK75-018, Fa. Corning) and subjected to gamma counting (1470 Wizard automatic gamma counter, Wallac). The resulting counts were attributed to membrane bound radioactivity. Cells were then lysed with 500 μl 0.3N NaOH (#181691.1211, Fa. PanReac AppliChem ITW Reagents) followed by another wash with 500 μl PBS. The NaOH lysate as well as the final wash were combined in vials and subjected to gamma counting as described above. Measured radioactivity was attributed to internalized fraction. Results were calculated as fmol of Th-227 per/10^cells in the membrane bound and internalized fractions from triplicate values.

T1 sequence (Q04609 whole entry): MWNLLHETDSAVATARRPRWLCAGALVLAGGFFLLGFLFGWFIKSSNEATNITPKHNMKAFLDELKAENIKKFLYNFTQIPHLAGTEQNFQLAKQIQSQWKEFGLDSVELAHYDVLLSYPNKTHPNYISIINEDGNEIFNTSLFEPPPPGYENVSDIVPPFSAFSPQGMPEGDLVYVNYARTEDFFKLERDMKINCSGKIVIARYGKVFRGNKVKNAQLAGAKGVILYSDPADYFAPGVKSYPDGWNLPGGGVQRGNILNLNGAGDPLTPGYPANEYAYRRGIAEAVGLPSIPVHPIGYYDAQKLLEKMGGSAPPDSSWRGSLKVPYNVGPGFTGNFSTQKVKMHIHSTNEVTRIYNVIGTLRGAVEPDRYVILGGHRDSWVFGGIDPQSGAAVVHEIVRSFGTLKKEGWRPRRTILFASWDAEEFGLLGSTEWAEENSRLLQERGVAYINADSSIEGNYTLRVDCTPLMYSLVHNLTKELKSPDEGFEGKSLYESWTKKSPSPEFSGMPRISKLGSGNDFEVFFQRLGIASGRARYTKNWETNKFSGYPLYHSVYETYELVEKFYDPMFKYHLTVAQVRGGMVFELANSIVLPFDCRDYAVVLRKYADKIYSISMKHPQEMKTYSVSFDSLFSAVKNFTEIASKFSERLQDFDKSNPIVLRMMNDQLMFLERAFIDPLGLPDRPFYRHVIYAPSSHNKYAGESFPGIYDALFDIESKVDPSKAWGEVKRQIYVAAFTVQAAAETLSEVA

Structure (SMILES)	Proliferation assay on cancer cell lines by TTCs Default Pivot #3 IC50 [kBq/mL] VCap 4000cells 375kBq/nmol (mean) (VCaP cells)	Proliferation assay on cancer cell lines by TTCs Default Pivot #3 IC50 [kBq/mL] C4-2 1000cells 375kBq/nmol (mean) (C4-2 cells)	Proliferation assay on cancer cell lines by TTCs Default Pivot #3 IC50 [kBq/mL] 22Rv1 1000cells 375kBq/nmol (mean) (22Rv1 cells)	Proliferation assay on cancer cell lines by TTCs Default Pivot #3 IC50 [kBq/mL] LnCap 1000cells 375kBq/nmol (mean) (LNCaP cells)	Internalized in LNCaP fmol/10^6 cells 30 min [1]	Membrane bound in LNCaP fmol/10^6 cells 30 min [1]	Internalized in LNCaP fmol/10^6 cells 2 h [1]	Membrane bound in LNCaP fmol/10^6 cells 2 h [1]
Cn1ccc2c(c1=O)[O][Th]13[O]c4c(ccn(C)c4=O)C(=O)NCCN(CCNC2=O)CC(Cc2ccc(NC(=O)CCC(=O)N[C@H](CCCNC(=N)N)C(=O)N[C@H](CCCNC(=N)N)C(=O)NC[C@H]4CC[C@H](C(=O)N[C@@H](Cc5ccc6ccccc6c5)C(=O)NCCCC[C@H](NC(=O)N[C@@H](CCC(=O)O)C(=O)O)C(=O)O)CC4)cc2)CN(CCNC(=O)c2ccn(C)c(=O)c2[O]1)CCNC(=O)c1ccn(C)c(=O)c1[O]3 (stereo partly shown) [Example 46-E-227Th]	1.37 kBq/mL	0.95 kBq/mL	0.68 kBq/mL	0.18 kBq/mL	34 fmol/10^6 cells	63 fmol/10^6 cells	104 fmol/10^6 cells	234 fmol/10^6 cells
Cc1cc(C(=O)NCCN(CCCN(CCNC(=O)c2cc(C)n(CC(=O)NCc3ccc(C(=O)N[C@@H](Cc4ccc5ccccc5n4)C(=O)NCCCC[C@H](NC(=O)N[C@@H](CCC(=O)O)C(=O)O)C(=O)O)nc3)c(=O)c2[O-])CCNC(=O)c2cc(C)n(CC(=O)NCc3ccc(C(=O)N[C@@H](Cc4ccc5ccccc5n4)C(=O)NCCCC[C@H](NC(=O)N[C@@H](CCC(=O)O)C(=O)O)C(=O)O)nc3)c(=O)c2[O-])CCNC(=O)c2cc(C)n(CC(=O)NCc3ccc(C(=O)N[C@@H](Cc4ccc5ccccc5n4)C(=O)NCCCC[C@H](NC(=O)N[C@@H](CCC(=O)O)C(=O)O)C(=O)O)nc3)c(=O)c2[O-])c([O-])c(=O)n1CC(=O)NCc1ccc(C(=O)N[C@@H](Cc2ccc3ccccc3n2)C(=O)NCCCC[C@H](NC(=O)N[C@@H](CCC(=O)O)C(=O)O)C(=O)O)nc1.[227Th+4] [34-C tetramer-227Th]	1.96 kBq/mL	1.55 kBq/mL	1.34 kBq/mL	0.03 kBq/mL	117 fmol/10^6 cells	82 fmol/10^6 cells	315 fmol/10^6 cells	183 fmol/10^6 cells
